# Measured values published in patent US20230212510A1, “METHODS FOR ORGANOIDS PRODUCTION” (CITY OF HOPE, priority 2020, published 2023).
# “Also recorded” adds a separate entry of the source. Where two headings read alike, the source gives them in different places.
# What was measured:
# Assay type in all cases: cell-based, human
# [1] = system: HMEC organoids in microcontainers; assay: Inhibitor treatment of contractile mammary organoids, contractions counted by time-lapse microscopy; details: for effect on contractions (FIG. 5H legend): 2 μM
# Method: Contraction temporal analysis: Organoid contractions were quantified either by hand or by brightness change analysis, as indicated. For brightness change analysis, time-lapse movies were taken, and the time-derivative of the whole-field image brightness was calculated. Local maxima in the time-derivative were interpreted as contractions and spot-checked by eye.
# Contractile function implies the presence of contractility-associated structural proteins. […] The association between contractility and ASMA expression was tested with inhibitor experiments. Contractile organoids were treated with either latrunculin B or jasplakinolide, inhibitors of cytoskeleton dynamics that either promote or inhibit actin polymerization, […]. […] Next, organoids were treated with ML-7, an inhibitor of the smooth muscle myosin light-chain kinase that interacts with ASMA.
# [2] = system: estrogen receptor; assay: Attempted induction of estrogen receptor expression, immunofluorescence; details: 25 μM RepSox and 10 μM SB431542 together; drugs maintained, withdrawn, or cells mixed 1:10 with undrugged cells
# [3] = system: HMEC organoids in microcontainers; assay: Interventions to alter organoid contraction kinetics (withdrawing media factors, adding matrix)
# [4] = system: HMEC organoids in microcontainers; assay: Prolactin treatment of organoids, luminal functional differentiation (morphology, Sudan Black)
molecule,measurement,setting,value
O=S(=O)(c1cccc2c(I)cccc12)N1CCCNCC1 [ML-7],inhibition of contractions,"[1]; 2 μM ML-7, FIG. 5I",Partial inhibition
same,effect on contractions (FIG. 5I legend),[1]; n=59 organoids,prevented contractions
Cc1cccc(-c2[nH]ncc2-c2ccc3ncccc3n2)n1 [RepSox],estrogen receptor expression by immunofluorescence,[2],not detected
NC(=O)c1ccc(-c2nc(-c3ccc4c(c3)OCO4)c(-c3ccccn3)[nH]2)cc1 [SB431542],estrogen receptor expression by immunofluorescence,[2],not detected
CC(C)NCC(O)c1ccc(O)c(O)c1 (stereo not drawn) [isoproterenol],effect on contraction kinetics,[3]; withdrawn from the media,no effect
"C/C1=C\[C@H](C)C[C@H](C)OC(=O)C[C@H](c2ccc(O)cc2)NC(=O)[C@@H](Cc2c(Br)[nH]c3ccccc23)N(C)C(=O)[C@H](C)NC(=O)[C@@H](C)C1 [jasplakinolide, Jasplakinolide]",effect on contractions (FIG. 5H legend),[1],prevented contractions
"C/C1=C/C(=O)O[C@@H]2C[C@@H](CC[C@H](C)/C=C\CC1)O[C@@](O)([C@@H]1CSC(=O)N1)C2 [latrunculin B, Latrunculin B]",effect on contractions (FIG. 5H legend),[1],prevented contractions
CC[C@H](C)[C@@H]1NC(=O)[C@H](Cc2ccc(O)cc2)NC(=O)[C@@H](N)CSSC[C@@H](C(=O)N2CCC[C@H]2C(=O)N[C@@H](CC(C)C)C(=O)NCC(N)=O)NC(=O)[C@H](CC(N)=O)NC(=O)[C@H](CCC(N)=O)NC1=O [oxytocin],effect on contraction kinetics,[3]; withdrawn from the media,no effect
cholera toxin,effect on contraction kinetics,[3],no effect
collagen I: matrix protein added to change the microenvironment,effect on contraction kinetics,[3]; added at 0 to 2 mg/mL,no effect
"prolactin: hormone treatment tested for evidence of lactation (protein, UniProt P01236 29-227, looked up) Prolactin: LPICPGGAARCQVTLRDLFDRAVVLSHYIHNLSSEMFSEFDKRYTHGRGFITKAINSCHTSSLATPEDKEQAQQMNQKDFLSLIVSILRSWNEPLYHLVTEVRGMQEAPEAILSKAVEIEEQTKRLLEGMELIVSQVHPETKENEIYPVWSGLPSLQMADEESRLSAYYNLLHCLRRDSHKIDNYLKLLKCRIIHNNNC",organoid morphology with prolactin treatment,"[4]; presence or absence of prolactin, FIG. 6A",no obvious differences; also recorded: no morphological changes
same,"sudanophilia (Sudan Black, marker of lipophilic secretions)","[4]; prolactin treatment, FIG. 6B",only evident in a single organoid
